According to ChEMBL document CHEMBL1201861, “Genomics of Drug Sensitity in Cancer screening data, Wellcome Trust Sanger Institute”:

Key:
Experiment in all cases: cells
UMC-11 = assay type: functional, cell-based, Homo sapiens; conditions: Homo sapiens, UMC-11;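 note: growth inhibition of UMC-11 cells, read out with a cell viability assay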
Description: SANGER: Inhibition of human UMC-11 cell growth in a cell viability assay.

LB831-BLC = assay type: functional, cell-based, Homo sapiens; conditions: Homo sapiens, LB831-BLC;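 note: growth inhibition of LB831-BLC cells, read out with a cell viability assay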
Description: SANGER: Inhibition of human LB831-BLC cell growth in a cell viability assay.

CWR22R = assay type: functional, cell-based, Homo sapiens; conditions: Homo sapiens, 22Rv1;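 note: growth inhibition of 22Rv1 cells, read out with a cell viability assay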
Description: SANGER: Inhibition of human 22RV1 cell growth in a cell viability assay.

NB10 = assay type: functional, cell-based, Homo sapiens; conditions: Homo sapiens, NB10;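 note: growth inhibition of NB10 cells, read out by a cell viability assay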
Description: SANGER: Inhibition of human NB10 cell growth in a cell viability assay.

KY821 = assay type: functional, cell-based; conditions: Homo sapiens;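 note: growth inhibition of human KY821 cells, read out by a cell viability assay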
Description: SANGER: Inhibition of human KY821 cell growth in a cell viability assay.

OE19 = assay type: functional, cell-based, Homo sapiens; conditions: Homo sapiens, OE19;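 note: growth inhibition of OE19 cells, measured through a cell viability read-out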
Description: SANGER: Inhibition of human OE19 cell growth in a cell viability assay.

BXPC-3 = assay type: functional, cell-based, Homo sapiens; conditions: Homo sapiens, BXPC-3;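 note: growth inhibition of human BxPC-3 cells, read out by a cell viability assay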
Description: SANGER: Inhibition of human BxPC-3 cell growth in a cell viability assay.

NCI-H1155 = assay type: functional, cell-based; conditions: Homo sapiens;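 note: cell growth inhibition measured by a viability assay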
Description: SANGER: Inhibition of human NCI-H1155 cell growth in a cell viability assay.

SNU1 = assay type: functional, cell-based; conditions: Homo sapiens;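 note: growth inhibition of human NCI-SNU-1 cells, measured with a cell viability assay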
Description: SANGER: Inhibition of human NCI-SNU-1 cell growth in a cell viability assay.

BE-13 = assay type: functional, cell-based; conditions: Homo sapiens;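 note: growth inhibition of human BE-13 cells, measured with a cell viability assay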
Description: SANGER: Inhibition of human BE-13 cell growth in a cell viability assay.

G-402 = assay type: functional, cell-based, Homo sapiens; conditions: Homo sapiens, G-402
Description: SANGER: Inhibition of human G-402 cell growth in a cell viability assay.

SW-620 = assay type: functional, cell-based, Homo sapiens; conditions: Homo sapiens, SW-620;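 note: growth inhibition of human SW-620 cells, measured by a cell viability assay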
Description: SANGER: Inhibition of human SW620 cell growth in a cell viability assay.

NCI-H209 = assay type: functional, cell-based; conditions: Homo sapiens;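 note: growth inhibition of human NCI-H209 cells, measured by a cell viability assay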
Description: SANGER: Inhibition of human NCI-H209 cell growth in a cell viability assay.

P30-OHK = assay type: functional, cell-based; conditions: Homo sapiens;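 note: growth inhibition of the P30-OHK cell line, read out with a cell viability assay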
Description: SANGER: Inhibition of human P30-OHK cell growth in a cell viability assay.

NB13 = assay type: functional, cell-based, Homo sapiens; conditions: Homo sapiens, NB13;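 note: cell viability readout measuring growth inhibition of human NB13 cells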
Description: SANGER: Inhibition of human NB13 cell growth in a cell viability assay.

Ramos-2G6-4C10 = assay type: functional, cell-based; conditions: Homo sapiens;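 note: growth inhibition of the cell line, measured by a cell viability read-out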
Description: SANGER: Inhibition of human Ramos-2G6-4C10 cell growth in a cell viability assay.

EM-2 = assay type: functional, cell-based; conditions: Homo sapiens;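 note: growth inhibition of EM-2 cells, read out with a cell viability assay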
Description: SANGER: Inhibition of human EM-2 cell growth in a cell viability assay.

ES3 = assay type: functional, cell-based, Homo sapiens; conditions: Homo sapiens, ES3;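 note: growth inhibition of ES3 cells, read out with a cell viability assay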
Description: SANGER: Inhibition of human ES3 cell growth in a cell viability assay.

CW-2 = assay type: functional, cell-based, Homo sapiens; conditions: Homo sapiens, CW-2;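 note: growth inhibition of CW-2 cells, read out by a cell viability assay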
Description: SANGER: Inhibition of human CW-2 cell growth in a cell viability assay.

D-502MG = assay type: functional, cell-based, Homo sapiens; conditions: Homo sapiens, D-502MG
Description: SANGER: Inhibition of human D-502MG cell growth in a cell viability assay.

MLMA = assay type: functional, cell-based, Homo sapiens; conditions: Homo sapiens, MLMA;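 note: growth inhibition of MLMA cells (human), determined through a cell viability readout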
Description: SANGER: Inhibition of human MLMA cell growth in a cell viability assay.

MMAC-SF = assay type: functional, cell-based, Homo sapiens; conditions: Homo sapiens, MMAC-SF;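 note: growth inhibition of human MMAC-SF cells, read out with a cell viability assay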
Description: SANGER: Inhibition of human MMAC-SF cell growth in a cell viability assay.

SW1463 = assay type: functional, cell-based, Homo sapiens; conditions: Homo sapiens, SW1463;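 note: growth inhibition of SW1463 cells, determined with a cell viability assay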
Description: SANGER: Inhibition of human SW1463 cell growth in a cell viability assay.

HCC1954 = assay type: functional, cell-based, Homo sapiens; conditions: Homo sapiens, HCC1954;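 note: growth inhibition of human HCC1954 cells, read out with a cell viability assay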
Description: SANGER: Inhibition of human HCC1954 cell growth in a cell viability assay.

DMS-114 = assay type: functional, cell-based, Homo sapiens; conditions: Homo sapiens, DMS-114
AM-38 = assay type: functional, cell-based, Homo sapiens; conditions: Homo sapiens, AM-38;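 note: growth inhibition of AM-38 cells of human origin, read out by a cell viability assay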
Description: SANGER: Inhibition of human AM-38 cell growth in a cell viability assay.

BT-474 = assay type: functional, cell-based, Homo sapiens; conditions: Homo sapiens, BT-474
Description: SANGER: Inhibition of human BT-474 cell growth in a cell viability assay.

8-MG-BA = assay type: functional, cell-based, Homo sapiens; conditions: Homo sapiens, 8-MG-BA;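 note: growth inhibition of 8-MG-BA cells, read out with a cell viability assay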
Description: SANGER: Inhibition of human 8-MG-BA cell growth in a cell viability assay.

EW-3 = assay type: functional, cell-based; conditions: Homo sapiens;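 note: cell viability assay read-out, IC50 reflects inhibition of growth of the EW-3 cells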
Description: SANGER: Inhibition of human EW-3 cell growth in a cell viability assay.

M14 = assay type: functional, cell-based, Homo sapiens; conditions: Homo sapiens, M14;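 note: growth inhibition of M14 cells, read out with a cell viability assay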
Description: SANGER: Inhibition of human M14 cell growth in a cell viability assay.

697 = assay type: functional, cell-based; conditions: Homo sapiens
Description: SANGER: Inhibition of human 697 cell growth in a cell viability assay.

HH = assay type: functional, cell-based; conditions: Homo sapiens
Description: SANGER: Inhibition of human HH cell growth in a cell viability assay.

LS-1034 = assay type: functional, cell-based, Homo sapiens; conditions: Homo sapiens, LS-1034
Description: SANGER: Inhibition of human LS-1034 cell growth in a cell viability assay.

Mo = assay type: functional, cell-based; conditions: Homo sapiens
Description: SANGER: Inhibition of human Mo-T cell growth in a cell viability assay.

NEC8 = assay type: functional, cell-based, Homo sapiens; conditions: Homo sapiens, NEC8;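 note: growth inhibition of human NEC8 cells, read out by a cell viability assay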
Description: SANGER: Inhibition of human NEC8 cell growth in a cell viability assay.

NCI-H1092 = assay type: functional, cell-based; conditions: Homo sapiens;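 note: cell growth inhibition measured with a cell viability assay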
Description: SANGER: Inhibition of human NCI-H1092 cell growth in a cell viability assay.

DMS-79 = assay type: functional, cell-based; conditions: Homo sapiens;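 note: growth inhibition measured with a cell viability assay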
Description: SANGER: Inhibition of human DMS-79 cell growth in a cell viability assay.

C2BBe1 = assay type: functional, cell-based, Homo sapiens; conditions: Homo sapiens, C2BBe1;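 note: growth inhibition of C2BBe1 cells, read out through a viability assay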
Description: SANGER: Inhibition of human C2BBe1 cell growth in a cell viability assay.

MV4-11 = assay type: functional, cell-based, MV-4-11; conditions: Homo sapiens;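 note: cell viability readout measuring growth inhibition of human MV-4-11 cells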
Description: SANGER: Inhibition of human MV-4-11 cell growth in a cell viability assay.

U-87 MG = assay type: functional, cell-based, U-87MG ATCC; conditions: Homo sapiens;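 note: growth inhibition of the cells measured with a viability assay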
Description: SANGER: Inhibition of human U-87-MG cell growth in a cell viability assay.

NCI-H1581 = assay type: functional, cell-based, Homo sapiens; conditions: Homo sapiens, NCI-H1581;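 note: cell growth inhibition read out by a viability assay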
Description: SANGER: Inhibition of human NCI-H1581 cell growth in a cell viability assay.

COLO-684 = assay type: functional, cell-based; conditions: Homo sapiens
Description: SANGER: Inhibition of human COLO-684 cell growth in a cell viability assay.

SCC-4 = assay type: functional, cell-based, Homo sapiens; conditions: Homo sapiens, SCC-4;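 note: growth inhibition of human SCC-4 cells, read out as cell viability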
Description: SANGER: Inhibition of human SCC-4 cell growth in a cell viability assay.

FaDu = assay type: functional, cell-based, Homo sapiens; conditions: Homo sapiens, FaDu;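 note: cell viability readout of growth inhibition in FaDu cells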
Description: SANGER: Inhibition of human FADU cell growth in a cell viability assay.

NCI-H2170 = assay type: functional, cell-based, Homo sapiens; conditions: Homo sapiens, NCI-H2170;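 note: cell viability assay measuring growth inhibition of human NCI-H2170 cancer cells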
Description: SANGER: Inhibition of human NCI-H2170 cell growth in a cell viability assay.

U-251 = assay type: functional, cell-based, Homo sapiens; conditions: Homo sapiens, U-251;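 note: growth inhibition of human U-251 cells, read out through a cell viability assay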
Description: SANGER: Inhibition of human U251 cell growth in a cell viability assay.

BHY = assay type: functional, cell-based, Homo sapiens; conditions: Homo sapiens, BHY;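 note: cell growth inhibition read out by a viability assay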
Description: SANGER: Inhibition of human BHY cell growth in a cell viability assay.

JEG-3 = assay type: functional, cell-based, Homo sapiens; conditions: Homo sapiens, JEG-3;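 note: growth inhibition of human JEG-3 cells, read out with a cell viability assay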
Description: SANGER: Inhibition of human JEG-3 cell growth in a cell viability assay.

MDA-MB-175-VII = assay type: functional, cell-based, Homo sapiens; conditions: Homo sapiens, MDA-MB-175-VII
PANC-03-27 = assay type: functional, cell-based, Homo sapiens; conditions: Homo sapiens, PANC-03-27
Description: SANGER: Inhibition of human PANC-03-27 cell growth in a cell viability assay.

NCI-H1437 = assay type: functional, cell-based, Homo sapiens; conditions: Homo sapiens, NCI-H1437;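 note: growth inhibition of human NCI-H1437 cells, read out by a cell viability assay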
Description: SANGER: Inhibition of human NCI-H1437 cell growth in a cell viability assay.

RCM-1 = assay type: functional, cell-based, Homo sapiens; conditions: Homo sapiens, RCM-1;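 note: growth inhibition of the RCM-1 line, determined with a cell viability readout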
Description: SANGER: Inhibition of human RCM-1 cell growth in a cell viability assay.

HuTu80 = assay type: functional, cell-based, Homo sapiens, HUTU-80; conditions: Homo sapiens, HuTu80;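 note: growth inhibition of HuTu80 human cells, determined with a cell viability readout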
Description: SANGER: Inhibition of human HUTU-80 cell growth in a cell viability assay.

O=C(c1cc(Cc2n[nH]c(=O)c3ccccc23)ccc1F)N1CCN(C(=O)C2CC2)CC1 [OLAPARIB]
IC50 (UMC-11): > 5000 nM
IC50 (LB831-BLC): > 5000 nM
IC50 (CWR22R): > 5000 nM
IC50 (NB10): > 5000 nM
IC50 (KY821): > 5000 nM
IC50 (OE19): > 5000 nM
IC50 (BXPC-3): > 5000 nM
IC50 (NCI-H1155): > 5000 nM
IC50 (SNU1): > 5000 nM
IC50 (BE-13): > 5000 nM
IC50 (G-402): > 5000 nM
IC50 (SW-620): > 5000 nM
IC50 (NCI-H209): 916 nM
IC50 (P30-OHK): > 5000 nM
IC50 (NB13): > 5000 nM
IC50 (Ramos-2G6-4C10): > 5000 nM
IC50 (EM-2): > 5000 nM
IC50 (ES3): > 5000 nM
IC50 (CW-2): > 5000 nM
IC50 (D-502MG): > 5000 nM
IC50 (MLMA): > 5000 nM
IC50 (MMAC-SF): > 5000 nM
IC50 (SW1463): > 5000 nM
IC50 (HCC1954): > 5000 nM
IC50 (DMS-114): > 5000 nM
IC50 (AM-38): > 5000 nM
IC50 (BT-474): > 5000 nM
IC50 (8-MG-BA): > 5000 nM
IC50 (EW-3): 2280 nM
IC50 (M14): > 5000 nM
IC50 697: 2840 nM
IC50 (HH): > 5000 nM
IC50 (LS-1034): > 5000 nM
IC50 (Mo): > 5000 nM
IC50 (NEC8): > 5000 nM
IC50 (NCI-H1092): > 5000 nM
IC50 (DMS-79): > 5000 nM
IC50 (C2BBe1): > 5000 nM
IC50 (MV4-11): 4130 nM
IC50 (U-87 MG): > 5000 nM
IC50 (NCI-H1581): > 5000 nM
IC50 (COLO-684): 3520 nM
IC50 (SCC-4): > 5000 nM
IC50 (FaDu): > 5000 nM
IC50 (NCI-H2170): > 5000 nM
IC50 (U-251): > 5000 nM
IC50 (BHY): > 5000 nM
IC50 (JEG-3): > 5000 nM
IC50 (MDA-MB-175-VII): > 5000 nM
IC50 (PANC-03-27): > 5000 nM
IC50 (NCI-H1437): > 5000 nM
IC50 (RCM-1): > 5000 nM

C=CCNC1=C2C[C@@H](C)C[C@H](OC)[C@H](O)[C@@H](C)/C=C(\C)[C@H](OC(N)=O)[C@@H](OC)/C=C\C=C(/C)C(=O)NC(=CC1=O)C2=O [TANESPIMYCIN]
IC50 (UMC-11): 552 nM
IC50 (LB831-BLC): 139 nM
IC50 (CWR22R): > 1000 nM
IC50 (NB10): > 1000 nM
IC50 (KY821): 299 nM
IC50 (HuTu80): > 1000 nM
IC50 (OE19): 30.8 nM
IC50 (BXPC-3): 160 nM
IC50 (NCI-H1155): 262 nM
IC50 (SNU1): 2.07 nM
IC50 (BE-13): > 1000 nM
IC50 (G-402): 47.9 nM
IC50 (SW-620): 70.3 nM
IC50 (NCI-H209): > 1000 nM
IC50 (P30-OHK): > 1000 nM
IC50 (NB13): 368 nM
IC50 (Ramos-2G6-4C10): > 1000 nM
IC50 (EM-2): > 1000 nM
IC50 (ES3): 591 nM
IC50 (CW-2): > 1000 nM
IC50 (D-502MG): > 1000 nM
IC50 (MLMA): > 1000 nM
IC50 (MMAC-SF): 105 nM
IC50 (SW1463): > 1000 nM
IC50 (HCC1954): > 1000 nM
IC50 (DMS-114): > 1000 nM
IC50 (AM-38): 208 nM
IC50 (BT-474): 45 nM
IC50 (8-MG-BA): 94.7 nM
IC50 (EW-3): 127 nM
IC50 (M14): 79.1 nM
IC50 697: > 1000 nM
IC50 (HH): > 1000 nM
IC50 (LS-1034): > 1000 nM
IC50 (Mo): > 1000 nM
IC50 (NEC8): > 1000 nM
IC50 (NCI-H1092): > 1000 nM
IC50 (C2BBe1): 222 nM
IC50 (MV4-11): 68 nM
IC50 (U-87 MG): 103 nM
IC50 (NCI-H1581): 103 nM
IC50 (COLO-684): 345 nM
IC50 (SCC-4): 178 nM
IC50 (FaDu): 2.09 nM
IC50 (NCI-H2170): 175 nM
IC50 (U-251): 105 nM
IC50 (BHY): 237 nM
IC50 (JEG-3): 187 nM
IC50 (MDA-MB-175-VII): 33.5 nM
IC50 (PANC-03-27): 103 nM
IC50 (NCI-H1437): 122 nM
IC50 (RCM-1): > 1000 nM
